Measured values as given in patent US7632972B2, “Compounds and methods for treatment of cancer and modulation of programmed cell death for melanoma and other cancer cells” (The Board of Trustees of the University of Illionis, priority 2003, dated 2009).

Legend:
human tumor cell lines = assay: NCI DTP 60 human tumor cell line screen (whole panel or cell lines not listed singly); format: cell-based; conditions: NCI panel of human cancer cell lines
Text: Selected compounds were identified for additional testing against a panel of human cancer cell lines maintained by the National Cancer Institute.
Potential anti-cancer agents are screened, and in certain instances were screened, using a screening system provided and performed by the National Cancer Institute (NCl). See http://dtp.nci.nih.gov/docs/misc/common_files/submit_compounds.html. The Developmental Therapeutics Program (DTP) of NCl operates an anti-cancer screening program. The program accepts both natural and synthetic compounds. For screening of natural products extracts, the Natural Products Branch can be contacted.
The operation of this screen utilizes 60 different human tumor cell lines, representing leukemia, melanoma and cancers of the lung, colon, brain, ovary, breast, prostate, and kidney. The aim is to prioritize for further evaluation, synthetic compounds or natural product samples showing selective growth inhibition or cell killing of particular tumor cell lines. […]
Following drug addition, the plates are incubated for an additional 48 h at 37° C., 5% CO2, 95% air, and 100% relative humidity. […] Bound stain is subsequently solubilized with 10 mM trizma base, and the absorbance is read on an automated plate reader at a wavelength of 515 nm. […]

HCT-116 = assay: NCI 60 cell line screen (SRB), Colon Cancer; format: cell-based, human
Text: (§1) The operation of this screen utilizes 60 different human tumor cell lines, representing leukemia, melanoma and cancers of the lung, colon, brain, ovary, breast, prostate, and kidney. The aim is to prioritize for further evaluation, synthetic compounds or natural product samples showing selective growth inhibition or cell killing of particular tumor cell lines. This screen is unique in that the complexity of a 60 cell line dose response produced by a given compound results in a biological response pattern which can be utilized in pattern recognition algorithms. Using these algorithms, it is possible to assign a putative mechanism of action to a test compound, or to determine that the response pattern is unique and not similar to that of any of the standard prototype compounds included in the NCl database (see DTP Overview tab). In addition, following characterization of various cellular molecular targets in the 60 cell lines, it may be possible to select compounds most likely to interact with a specific molecular target.
(§2) The human tumor cell lines of the cancer screening panel are grown in RPMI 1640 medium containing 5% fetal bovine serum and 2 mM L-glutamine. For a typical screening experiment, cells are inoculated into 96 well microtiter plates in 100 μL at plating densities ranging from 5,000 to 40,000 cells/well depending on the doubling time of individual cell lines. After cell inoculation, the microtiter plates are incubated at 37° C., 5% CO2, 95% air and 100% relative humidity for 24 h prior to addition of experimental drugs.
(§3) After 24 h, two plates of each cell line are fixed in situ with TCA, to represent a measurement of the cell population for each cell line at the time of drug addition (Tz). Experimental drugs are solubilized in dimethyl sulfoxide at 400-fold the desired final maximum test concentration and stored frozen prior to use. At the time of drug addition, an aliquot of frozen concentrate is thawed and diluted to twice the desired final maximum test concentration with complete medium containing 50 μg/ml gentamicin. Additional four, 10-fold or ½ log serial dilutions are made to provide a total of five drug concentrations plus control. Aliquots of 100 μl of these different drug dilutions are added to the appropriate microtiter wells already containing 100 μl of medium, resulting in the required final drug concentrations.
(§4) Following drug addition, the plates are incubated for an additional 48 h at 37° C., 5% CO2, 95% air, and 100% relative humidity. For adherent cells, the assay is terminated by the addition of cold TCA. Cells are fixed in situ by the gentle addition of 50 μl of cold 50% (w/v) TCA (final concentration, 10% TCA) and incubated for 60 minutes at 4° C. The supernatant is discarded, and the plates are washed five times with tap water and air dried. Sulforhodamine B (SRB) solution (100 μl) at 0.4% (w/v) in 1% acetic acid is added to each well, and plates are incubated for 10 minutes at room temperature. After staining, unbound dye is removed by washing five times with 1% acetic acid and the plates are air dried. Bound stain is subsequently solubilized with 10 mM trizma base, and the absorbance is read on an automated plate reader at a wavelength of 515 nm. For suspension cells, the methodology is the same except that the assay is terminated by fixing settled cells at the bottom of the wells by gently adding 50 μl of 80% TCA (final concentration, 16% TCA). Using the seven absorbance measurements [time zero, (Tz), control growth, (C), and test growth in the presence of drug at the five concentration levels (Ti)], the percentage growth is calculated at each of the drug concentrations levels. Percentage growth inhibition is calculated as: [(Ti−Tz)/(C−Tz)]×100 for concentrations for which Ti>/=Tz [(Ti−Tz)/Tz]×100 for concentrations for which Ti<Tz.
(§5) Three dose response parameters are calculated for each experimental agent. […]

COLO 205 = assay: NCI 60 cell line screen (SRB), Colon Cancer; format: cell-based, human
Text: as §1, §2, §3, §4, §5

KM12 = assay: NCI 60 cell line screen (SRB), Colon Cancer; format: cell-based, human
Text: as §1, §2, §3, §4, §5

SW-620 = assay: NCI 60 cell line screen (SRB), Colon Cancer; format: cell-based, human
Text: as §1, §2, §3, §4, §5

HCT-15 = assay: NCI 60 cell line screen (SRB), Colon Cancer; format: cell-based, human
Text: as §1, §2, §3, §4, §5

## COc1cccc(CCNC(=O)CC(c2ccccc2)(c2ccccc2)c2ccccc2)c1 [Compound Z3]
Human tumor cell lines
  activity against colon cancer cells: significant activity
  activity against melanoma cells: significant activity
HCT-116; HCT-116
  GI50: 2.58 µM
  TGI: 2.67E−05
HCT-116; HCT-116, Log10 Concentration −4.0
  Percent Growth: −22%
HCT-116; HCT-116, Log10 Concentration −5.0
  Percent Growth: 16%
HCT-116; HCT-116, Log10 Concentration −6.0
  Percent Growth: 74%
HCT-116; HCT-116, Log10 Concentration −7.0
  Percent Growth: 91%
HCT-116; HCT-116, Log10 Concentration −8.0
  Percent Growth: 97%
HCT-116; HCT-116, read-out: LC50 (the source's name)
  CC50: > 100 µM
COLO 205; COLO 205
  GI50: 12.8 µM
  TGI: >1.00E−04
COLO 205; COLO 205, Log10 Concentration −4.0
  Percent Growth: 27%
COLO 205; COLO 205, Log10 Concentration −5.0
  Percent Growth: 53%
COLO 205; COLO 205, Log10 Concentration −6.0
  Percent Growth: 106%
COLO 205; COLO 205, Log10 Concentration −7.0
  Percent Growth: 117%
COLO 205; COLO 205, Log10 Concentration −8.0
  Percent Growth: 99%
COLO 205; COLO 205, read-out: LC50 (the source's name)
  CC50: > 100 µM
KM12; KM12
  GI50: 4.75 µM
  TGI: >1.00E−04
KM12; KM12, Log10 Concentration −4.0
  Percent Growth: 14%
KM12; KM12, Log10 Concentration −5.0
  Percent Growth: 25%
KM12; KM12, Log10 Concentration −6.0
  Percent Growth: 101%
KM12; KM12, Log10 Concentration −7.0
  Percent Growth: 107%
KM12; KM12, Log10 Concentration −8.0
  Percent Growth: 111%
KM12; KM12, read-out: LC50 (the source's name)
  CC50: > 100 µM
SW-620; SW-620
  GI50: 85.2 µM
  TGI: >1.00E−04
SW-620; SW-620, Log10 Concentration −4.0
  Percent Growth: 49%
SW-620; SW-620, Log10 Concentration −5.0
  Percent Growth: 64%
SW-620; SW-620, Log10 Concentration −6.0
  Percent Growth: 97%
SW-620; SW-620, Log10 Concentration −7.0
  Percent Growth: 105%
SW-620; SW-620, Log10 Concentration −8.0
  Percent Growth: 95%
SW-620; SW-620, read-out: LC50 (the source's name)
  CC50: > 100 µM
HCT-15; HCT-15
  GI50: > 100 µM
  TGI: >1.00E−04
HCT-15; HCT-15, Log10 Concentration −4.0
  Percent Growth: 57%
HCT-15; HCT-15, Log10 Concentration −5.0
  Percent Growth: 62%
HCT-15; HCT-15, Log10 Concentration −6.0
  Percent Growth: 86%
HCT-15; HCT-15, Log10 Concentration −7.0
  Percent Growth: 99%
HCT-15; HCT-15, Log10 Concentration −8.0
  Percent Growth: 103%
HCT-15; HCT-15, read-out: LC50 (the source's name)
  CC50: > 100 µM
